Consider 29 compounds from patent US8466290B2, “STAT3 inhibitor containing quinolinecarboxamide derivative as active ingredient” (Pharma IP General Incorporated Association, priority 2008, dated 2013).

Each structure is given as a SMILES string. Where only a bound is given, the exact number is not on record here.

One assay deals with STAT3. The experiment in a line: STAT3 transcription inhibition test (reporter gene method, oncostatin M stimulation). In kind it is cell-based. Conditions: Homo sapiens; compound at 100 μM; STAT3 reporter HeLa stable cell line; oncostatin M 10 ng/mL, 4 hours; read-out: STAT3 transcription inhibitory activity (%). As to the method:
The inhibition of STAT3 transcription was evaluated by using STAT3 reporter HeLa stable cell line (Panomics Inc., catalog No. RC0003), a cell line for the reporter gene method, and performing the following method according to the appendix included therein.
STAT3 reporter HeLa stable cell line subcultured and maintained in a Dulbecco's modified Eagle's medium (DMEM) containing 10% fetal bovine serum, 100 units/mL penicillin, and 100 μg/mL streptomycin was inoculated at a concentration of 40000 cells/well to a 96-well plate (white) and attached to the plate by overnight incubation at 37° C. under 5% CO2. After addition of each evaluation compound adjusted to various concentrations (adjusted with a DMSO solution), the cells were precultured for 1 hour. Then, oncostatin M for activating STAT3 was added at a final concentration 10 ng/mL, and the cells were further cultured at 37° C. under 5% CO2 for 4 hours. Luciferase activity derived from the cells was determined using Steady-Glo Luciferase Assay System (Promega Corp.), and STAT3 transcriptional activity scores were calculated according to the following formula: STAT3 transcriptional activity score (%)=100×(Lchem−L0)/(LDMSO−L0) Lo: luminescence intensity obtained without stimulation with oncostatin M Lchem: luminescence intensity obtained by the addition of a test sample LDMSO: luminescence intensity obtained by the addition of only a solvent for dissolving a test sample
In general terms: A reporter such as luciferase makes a cellular process visible.

For a further assay, the system named is MDA-MB-435S. As to the kind of experiment: MDA-MB-435S cell growth inhibitory activity. In kind it is cell-based. The note with it: Homo sapiens, compound at 20 μM, 72 hours, read-out: Cell growth inhibitory activity (%). The protocol:
[…] Each well was washed three times with a medium. Then, after addition of 100 μL/well of a medium and 20 μL/well of CellTiter 96 AQueous One Solution Reagent (Promega Corp.), the cells were incubated at 37° C. for 2 hours in the presence of 5% CO2.

For `O=C(Nc1nnc(-c2ccco2)o1)c1cc(-c2ccccc2O)nc2ccccc12` [Ia-38, N-[5-(2-furyl)-1,3,4-oxadiazol-2-yl]-2-(2-hydroxyphenyl)-4-quinolinecarboxamide], the inhibition at 100 µM with STAT3 was over 100%. In addition, the inhibition at 20 µM in the assay on MDA-MB-435S came out at 50%.

Consider `O=C(Nc1nnc(-c2ccco2)o1)c1cc(-c2cccc(Cl)c2)nc2ccccc12` [Ia-41, 2-(3-chlorophenyl)-N-[5-(2-furyl)-1,3,4-oxadiazol-2-yl]-4-quinolinecarboxamide], for which the inhibition at 100 µM with STAT3 was over 100%. Further, in the assay with MDA-MB-435S, the inhibition at 20 µM was 55%.

For `COc1cccc(-c2cc(C(=O)Nc3nnc(-c4ccco4)o3)c3ccccc3n2)c1` [Ia-42, N-[5-(2-furyl)-1,3,4-oxadiazol-2-yl]-2-(3-methoxyphenyl)-4-quinolinecarboxamide], in the assay with STAT3, the inhibition at 100 µM came to 92%. Besides, in the assay with MDA-MB-435S, the inhibition at 20 µM turned out to be 92%.

On to `N#Cc1cccc(-c2cc(C(=O)Nc3nnc(-c4ccco4)o3)c3ccccc3n2)c1` [Ia-43, 2-(3-cyanophenyl)-N-[5-(2-furyl)-1,3,4-oxadiazol-2-yl]-4-quinolinecarboxamide], for which, in the assay on STAT3, the inhibition at 100 µM is 71%. Also, in the assay on MDA-MB-435S, the inhibition at 20 µM stood at 72%.

Take `O=C(Nc1nnc(-c2ccco2)o1)c1cc(-c2ccc(F)cc2)nc2ccccc12` [Ia-46, 2-(4-fluorophenyl)-N-[5-(2-furyl)-1,3,4-oxadiazol-2-yl]-4-quinolinecarboxamide]: the inhibition at 100 µM with STAT3 worked out at 80%. Also, the inhibition at 20 µM in the assay on MDA-MB-435S worked out at 54%.

Turning to `Cc1ccc(-c2cc(C(=O)Nc3nnc(-c4ccco4)o3)c3ccccc3n2)cc1` [Ia-48, N-[5-(2-furyl)-1,3,4-oxadiazol-2-yl]-2-(4-methylphenyl)-4-quinolinecarboxamide], in the assay with STAT3, the inhibition at 100 µM is 92%. Further, the inhibition at 20 µM in the assay on MDA-MB-435S amounted to 69%.

As for `O=C(Nc1nnc(-c2ccco2)o1)c1cc(-c2ccc(OC(F)F)cc2)nc2ccccc12` [Ia-49, 2-(4-difluoromethoxyphenyl)-N-[5-(2-furyl)-1,3,4-oxadiazol-2-yl]-4-quinolinecarboxamide], in the assay on STAT3, the inhibition at 100 µM was over 100%. In addition, the inhibition at 20 µM with MDA-MB-435S was found to be 51%.

Regarding `COc1ccc(-c2cc(C(=O)Nc3nnc(-c4ccco4)o3)c3ccccc3n2)cc1` [Ia-51, N-[5-(2-furyl)-1,3,4-oxadiazol-2-yl]-2-(4-methoxyphenyl)-4-quinolinecarboxamide], the inhibition at 100 µM in the assay with STAT3 is over 100%. In addition, the inhibition at 20 µM in the assay on MDA-MB-435S turned out to be 56%.

Regarding `COc1ccc(-c2cc(C(=O)Nc3nnc(-c4ccco4)o3)c3ccccc3n2)cc1OC` [Ia-57, N-[5-(2-furyl)-1,3,4-oxadiazol-2-yl]-2-(3,4-dimethoxyphenyl)-4-quinolinecarboxamide], in the assay on STAT3, the inhibition at 100 µM was over 100%. In addition, the inhibition at 20 µM with MDA-MB-435S was 64%.

As for `O=C(Nc1nnc(-c2ccco2)o1)c1cc(-c2ccc3c(c2)OCO3)nc2ccccc12` [Ia-58, N-[5-(2-furyl)-1,3,4-oxadiazol-2-yl]-2-(3,4-methylenedioxyphenyl)-4-quinolinecarboxamide], in the assay on STAT3, the inhibition at 100 µM was over 100%. The inhibition at 20 µM in the assay with MDA-MB-435S is 58%.

Take `Cc1ccc(-c2cc(C(=O)Nc3nnc(-c4ccco4)o3)c3ccccc3n2)o1` [Ia-64, N-[5-(2-furyl)-1,3,4-oxadiazol-2-yl]-2-(5-methyl-2-furyl)-4-quinolinecarboxamide]: the inhibition at 100 µM in the assay on STAT3 is over 100%. For the same compound, the inhibition at 20 µM with MDA-MB-435S stood at 57%.

With `O=C(Nc1nnc(-c2ccco2)o1)c1cc(-c2ccccc2)nc2ccc(Br)cc12` [Ia-68, 6-bromo-N-[5-(2-furyl)-1,3,4-oxadiazol-2-yl]-2-phenyl-4-quinolinecarboxamide], the inhibition at 100 µM with STAT3 is over 100%. Further, the inhibition at 20 µM with MDA-MB-435S came to 63%.

With `O=C(Nc1nnc(-c2ccco2)o1)c1cc(-c2ccccc2)nc2ccc(-c3ccccc3)cc12` [Ia-75, N-[5-(2-furyl)-1,3,4-oxadiazol-2-yl]-2,6-diphenyl-4-quinolinecarboxamide], the inhibition at 100 µM with STAT3 is over 100%. For the same compound, in the assay with MDA-MB-435S, the inhibition at 20 µM is 64%.

As to `O=C(Nc1nnc(-c2ccco2)o1)c1cc(-c2ccccc2)nc2ccc(-c3ccncc3)cc12` [Ia-76, N-[5-(2-furyl)-1,3,4-oxadiazol-2-yl]-2-phenyl-6-(4-pyridyl)-4-quinolinecarboxamide], the inhibition at 100 µM with STAT3 was over 100%. Moreover, the inhibition at 20 µM with MDA-MB-435S is 84%.

With `O=C(Nc1nnc(Cc2ccccc2)o1)c1cc(-c2ccccc2)nc2ccccc12` [Ia-83, N-(5-benzyl-1,3,4-oxadiazol-2-yl)-2-phenyl-4-quinolinecarboxamide], the inhibition at 100 µM in the assay with STAT3 was over 100%. The inhibition at 20 µM in the assay with MDA-MB-435S stood at 90%.

As to `CCC(=O)Nc1ccc2nc(-c3ccccc3)cc(C(=O)Nc3nnc(-c4ccco4)o3)c2c1` [Ia-93, N-[5-(2-furyl)-1,3,4-oxadiazol-2-yl]-2-phenyl-6-propionylamino-4-quinolinecarboxamide], in the assay on STAT3, the inhibition at 100 µM was 72%. Further, in the assay on MDA-MB-435S, the inhibition at 20 µM was determined as 67%.

Turning to `O=C(Nc1nnc(-c2ccco2)o1)c1cc(-c2ccccc2)nc2ccc(-c3ccc(O)cc3)cc12` [Ia-98, N-[5-(2-furyl)-1,3,4-oxadiazol-2-yl]-6-(4-hydroxyphenyl)-2-phenyl-4-quinolinecarboxamide], the inhibition at 100 µM in the assay on STAT3 is over 100%. Further, the inhibition at 20 µM in the assay on MDA-MB-435S was determined as 86%.

For the compound `O=C(Nc1nnc(-c2ccco2)o1)c1cc(-c2ccccc2)nc2ccc(-c3ccsc3)cc12` [Ia-99, N-[5-(2-furyl)-1,3,4-oxadiazol-2-yl]-6-(3-thienyl)-2-phenyl-4-quinolinecarboxamide], the inhibition at 100 µM with STAT3 came to 73%. Besides, the inhibition at 20 µM in the assay on MDA-MB-435S turned out to be 93%.

In the case of `O=C(Nc1nnc(-c2ccco2)o1)c1cc(-c2ccccc2)nc2ccc(-c3cccnc3)cc12` [Ia-100, N-[5-(2-furyl)-1,3,4-oxadiazol-2-yl]-6-(3-pyridyl)-2-phenyl-4-quinolinecarboxamide], the inhibition at 100 µM in the assay on STAT3 stood at 92%. Besides, in the assay with MDA-MB-435S, the inhibition at 20 µM amounted to 76%.

In the case of `O=C(Nc1nnc(-c2ccccc2)o1)c1cc(-c2ccccc2)nc2ccc(Cl)cc12` [Ia-110, 6-chloro-2-phenyl-N-(5-phenyl-1,3,4-oxadiazol-2-yl)-4-quinolinecarboxamide], the inhibition at 100 µM with STAT3 was found to be 89%. Also, the inhibition at 20 µM in the assay with MDA-MB-435S amounted to 65%.

With `O=C(Nc1nnc(-c2ccccc2)o1)c1cc(-c2ccccc2)nc2ccc(OC(F)(F)F)cc12` [Ia-111, N-(5-phenyl-1,3,4-oxadiazol-2-yl)-2-phenyl-6-trifluoromethoxy-4-quinolinecarboxamide], in the assay on STAT3, the inhibition at 100 µM was over 100%. For the same compound, the inhibition at 20 µM in the assay on MDA-MB-435S stood at 87%.

Regarding `O=C(Nc1nnc(-c2ccccc2Cl)o1)c1cc(-c2ccccc2)nc2ccc(Cl)cc12` [Ia-112, 6-chloro-N-[5-(2-chlorophenyl)-1,3,4-oxadiazol-2-yl]-2-phenyl-4-quinolinecarboxamide], the inhibition at 100 µM in the assay with STAT3 was over 100%. Besides, the inhibition at 20 µM with MDA-MB-435S came to 69%.

Take `O=C(Nc1nnc(-c2ccccc2Cl)o1)c1cc(-c2ccccc2)nc2ccc(OC(F)(F)F)cc12` [Ia-113, N-[5-(2-chlorophenyl)-1,3,4-oxadiazol-2-yl]-2-phenyl-6-trifluoromethoxy-4-quinolinecarboxamide]: in the assay with STAT3, the inhibition at 100 µM was over 100%. Also, the inhibition at 20 µM with MDA-MB-435S was determined as 76%.

In the case of `COc1ccc(-c2nnc(NC(=O)c3cc(-c4ccccc4)nc4ccc(OC(F)(F)F)cc34)o2)cc1` [Ia-117, N-[5-(4-methoxyphenyl)-1,3,4-oxadiazol-2-yl]-2-phenyl-6-trifluoromethoxy-4-quinolinecarboxamide], the inhibition at 100 µM in the assay with STAT3 turned out to be 87%. The inhibition at 20 µM with MDA-MB-435S came to 85%.

Regarding `O=C(Nc1nnc(-c2cccs2)o1)c1cc(-c2ccccc2)nc2ccccc12` [Ia-a, 2-phenyl-N-[5-(2-thienyl)-1,3,4-oxadiazol-2-yl]-4-quinolinecarboxamide], the inhibition at 100 µM in the assay on STAT3 is 86%. Also, the inhibition at 20 µM in the assay on MDA-MB-435S was 89%.

For the compound `COc1ccccc1-c1nnc(NC(=O)c2cc(-c3ccccc3)nc3ccccc23)o1` [Ia-c, N-[5-(2-methoxyphenyl)-1,3,4-oxadiazol-2-yl]-2-phenyl-4-quinolinecarboxamide], the inhibition at 100 µM in the assay with STAT3 worked out at 67%. Besides, the inhibition at 20 µM in the assay with MDA-MB-435S worked out at 97%.

Consider `O=C(Nc1nnc(Br)s1)c1cc(-c2ccccc2)nc2ccccc12` [Ib-2, N-(5-bromo-1,3,4-thiadiazol-2-yl)-2-phenyl-4-quinolinecarboxamide], for which the inhibition at 100 µM in the assay with STAT3 is over 100%. For the same compound, the inhibition at 20 µM in the assay on MDA-MB-435S is 79%.

As to `O=C(Nc1nnc(-c2ccncc2)s1)c1cc(-c2ccccc2)nc2ccc(OC(F)(F)F)cc12` [Ib-8, 2-phenyl-N-[5-(4-pyridyl)-1,3,4-thiadiazol-2-yl]-6-trifluoromethoxy-4-quinolinecarboxamide], in the assay on STAT3, the inhibition at 100 µM is 65%. Besides, the inhibition at 20 µM with MDA-MB-435S stood at 80%.

`CC(C)Oc1cccc(-c2cc(C(=O)Nc3nnc(-c4ccncc4)s3)c3ccccc3n2)c1` [Ib-b, 2-(3-isopropoxyphenyl)-N-[5-(4-pyridyl)-1,3,4-thiadiazol-2-yl]-4-quinolinecarboxamide]: the inhibition at 100 µM in the assay with STAT3 was over 100%. Further, the inhibition at 20 µM in the assay with MDA-MB-435S came out at 97%.
